Measured values published in ChEMBL document CHEMBL4118032, “Geranylpyrrol A and Piericidin F from Streptomyces sp. CHQ-64 ΔrdmF” (J Nat Prod, 2017).
Counter-ions that a name gives are not always drawn.

Experiments:
Assay type in all cases: functional, cell-based
K562 = test: Cytotoxicity against human K562 cells after 72 hrs by MTT assay; conditions: K562, 72 h
HCT-116 = test: Cytotoxicity against human HCT116 cells after 24 hrs by sulforhodamine B assay; conditions: HCT-116, 24 h
NCI-H1975 = test: Cytotoxicity against human NCI-H1975 cells after 24 hrs by sulforhodamine B assay; conditions: NCI-H1975, 24 h
A549 = test: Cytotoxicity against human A549 cells after 24 hrs by sulforhodamine B assay; conditions: A549, 24 h
HL-60 = test: Cytotoxicity against human HL60 cells after 72 hrs by MTT assay; conditions: HL-60, 72 h
[1] = Cytotoxicity against human MCF7/ADM cells after 24 hrs by sulforhodamine B assay
NB-4 = test: Cytotoxicity against human NB4 cells after 72 hrs by MTT assay; conditions: NB-4, 72 h
HeLa = test: Cytotoxicity against human HeLa cells after 24 hrs by sulforhodamine B assay

Question: Which results are given for `C/C=C(\C)[C@H](OC)[C@H](C)/C=C(C)/C=C/C/C(C)=C/Cc1nc(OC)cc(O)c1C`?
Answer: IC50 (K562): > 30 µM; IC50 (HCT-116): > 30 µM; IC50 (NCI-H1975): 0.49 µM; IC50 (A549): 0.56 µM; IC50 (HL-60): > 30 µM; IC50 [1]: > 30 µM; IC50 (NB-4): 0.037 µM; IC50 (HeLa): 0.003 µM

Question: What does the source list for `COC(=O)c1[nH]cc(C/C=C(\C)CCC=C(C)C)c1NC(C)=O`?
Answer: IC50 (K562): > 30 µM; IC50 (HCT-116): > 30 µM; IC50 (NCI-H1975): > 30 µM; IC50 (A549): > 30 µM; IC50 (HL-60): > 30 µM; IC50 [1]: > 30 µM; IC50 (NB-4): > 30 µM; IC50 (HeLa): > 30 µM

Question: For `COc1cccc2c1C(=O)c1c(O)c3c(c(O)c1C2=O)C[C@@](O)(C(=O)CO)C[C@@H]3O[C@H]1C[C@H](N)[C@H](O)[C@H](C)O1` [DOXORUBICIN HYDROCHLORIDE], which IC50 (NCI-H1975) is on record?
Answer: Its IC50 is 0.2 µM.

Question: What about the IC50 [1] of the same compound?
Answer: Its IC50 is 25.2 µM.

Question: And the IC50 (NB-4)?
Answer: Its IC50 is 0.4 µM.
